Results taken from ChEMBL document CHEMBL1201862, “PubChem BioAssay data set” (2004).
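48-hour exposure; five concentrations; linearly interpolated endpoints. GI50 = concentration required for 50% inhibition of growth.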 Calls of active or inactive are those of the source. Rule as the data show it: active = GI50 up to about 1.1 µM and inactive = higher.

What was measured:
Assay in all cases: growth of human tumour cells (NCI), 48 h
DLD-1 = test system: DLD-1
DMS-273 = test system: DMS-273
M19-MEL = test system: M19-MEL
RXF 631 = test system: RXF 631
XF498 = test system: XF498
DMS-114 = test system: DMS-114
HOP-18 = test system: HOP-18
KM-20L2 = test system: KM-20L2
SNB-78 = test system: SNB-78

Row | Compound | GI50 (DLD-1) | GI50 (DMS-273) | GI50 (M19-MEL) | GI50 (RXF 631) | GI50 (XF498) | GI50 (DMS-114) | GI50 (HOP-18) | GI50 (KM-20L2) | GI50 (SNB-78)
1 | Oc1cc(-c2ccc[nH]2)nc2cc3c(cc12)OCO3 | 34.4 µM (inactive) | 32.2 µM (inactive) | 39 µM (inactive) | 47.5 µM (inactive) | 21.1 µM (inactive) | – | – | – | –
2 | COc1ccc(C2C(C)C(=O)C(C)C(c3ccc(OC)cc3)N2N=O)cc1 (stereo unspecified) | > 1000 µM (inactive) | > 514 µM (inactive) | > 750 µM (inactive) | > 95.3 µM (inactive) | 166 µM (inactive) | > 750 µM (inactive) | > 100 µM (inactive) | > 925 µM (inactive) | 121 µM (inactive)
3 | O=C1C=C(NCCc2ccccc2)c2ccccc2C1=O | 6.03 µM (inactive) | 2.77 µM (inactive) | 0.276 µM (active) | – | – | 1.92 µM (inactive) | 1.63 µM (inactive) | 6.95 µM (inactive) | 16.6 µM (inactive)
4 | Cc1cc(N(CCC#N)S(=O)(=O)c2ccccc2)ccc1/C=C1N=C(/C=C/c2ccccc2)OC\1=O | > 100 µM (inactive) | > 100 µM (inactive) | – | – | > 100 µM (inactive) | 94.4 µM (inactive) | – | > 100 µM (inactive) | 80.5 µM (inactive)
5 | CSC(=N\c1ccccc1)/N=C(\SCc1ccccc1)N(C)C | – | 0.59 µM (active) | 1.66 µM (inactive) | 1.38 µM (inactive) | 1.33 µM (inactive) | 1.09 µM (active) | 0.774 µM (active) | – | 1.63 µM (inactive)
6 | CCCCCCCCCCCCCCCC(=O)OCC1OC(n2cc(F)c(=O)[nH]c2=O)C(NC(=O)N(CCCl)N=O)C(O)C1O (stereo unspecified) | 2.84 µM (inactive) | 0.343 µM (active) | 2.82 µM (inactive) | 3.08 µM (inactive) | – | 1.12 µM (inactive) | 16.4 µM (inactive) | 5.15 µM (inactive) | 3.85 µM (inactive)
7 | O=c1[nH]cc(OCC(F)(F)F)c(=O)[nH]1 | > 100 µM (inactive) | > 100 µM (inactive) | > 100 µM (inactive) | > 100 µM (inactive) | > 100 µM (inactive) | > 100 µM (inactive) | > 100 µM (inactive) | > 100 µM (inactive) | > 100 µM (inactive)
8 | COC1N(C2CC(O)C(CO)O2)C(=O)NC(=O)C1(F)Br (stereo unspecified) | 16.5 µM (inactive) | 14.7 µM (inactive) | – | 6.84 µM (inactive) | 17.3 µM (inactive) | 43.9 µM (inactive) | > 50 µM (inactive) | 16.6 µM (inactive) | > 50 µM (inactive)
9 | O=C(NC12CC3CC(CC(C3)C1)C2)C(=O)c1c[nH]c2ccc([N+](=O)[O-])cc12 | – | 5.66 µM (inactive) | 60 µM (inactive) | – | 18.2 µM (inactive) | 43.9 µM (inactive) | 28.6 µM (inactive) | 36.5 µM (inactive) | –
10 | COc1cc(-c2cccs2)sc1-c1cccs1 | 8.17 µM (inactive) | 12.5 µM (inactive) | 32.8 µM (inactive) | – | – | 30 µM (inactive) | 1.58 µM (inactive) | 26.7 µM (inactive) | 36.2 µM (inactive)
11 | O=C(Nc1nnn[nH]1)c1nc(O)cc(-c2ccccc2)n1 | > 100 µM (inactive) | – | > 100 µM (inactive) | – | > 100 µM (inactive) | > 100 µM (inactive) | – | > 100 µM (inactive) | > 100 µM (inactive)
12 | Cc1cnc(NCCCN(C)C)c2c1[nH]c1ccc3cc(O)ccc3c12 | 0.49 µM (active) | 0.462 µM (active) | 0.383 µM (active) | – | 0.222 µM (active) | 0.0962 µM (active) | 1.43 µM (inactive) | 0.266 µM (active) | 0.929 µM (active)
13 | CCOC(=O)C1=C(C)N(NC(N)=O)C2(N)N(NC(N)=O)C(C)=C(C(=O)OCC)C12C(=O)OCC (stereo unspecified) | > 100 µM (inactive) | > 100 µM (inactive) | > 100 µM (inactive) | – | > 100 µM (inactive) | > 100 µM (inactive) | – | > 100 µM (inactive) | –
14 | Cc1cc(-c2c(F)cc3c4nn([C@H]5CC[C@@H](N(C)C)CC5)c(=O)c-4cn(C4CC4)c3c2F)cc(C)n1 | 0.0428 µM (active) | 0.00594 µM (active) | 0.0891 µM (active) | 0.0355 µM (active) | 0.318 µM (active) | 0.024 µM (active) | 0.197 µM (active) | 0.14 µM (active) | 0.28 µM (active)
15 | O=[N+]([O-])c1nccn1COCCBr | > 100 µM (inactive) | – | > 100 µM (inactive) | – | > 100 µM (inactive) | > 100 µM (inactive) | – | > 100 µM (inactive) | –
16 | CCOC(=O)C1(Cc2ccccc2)CCCCCN1 (stereo unspecified) | > 100 µM (inactive) | > 100 µM (inactive) | > 100 µM (inactive) | > 100 µM (inactive) | – | > 100 µM (inactive) | > 100 µM (inactive) | > 100 µM (inactive) | > 100 µM (inactive)
17 | C=C1CC2CC(O)CC(C1)C2 (stereo unspecified) | > 100 µM (inactive) | > 100 µM (inactive) | > 100 µM (inactive) | – | > 100 µM (inactive) | > 100 µM (inactive) | > 100 µM (inactive) | > 100 µM (inactive) | > 100 µM (inactive)
18 | CC(C)C12C=CC(C)(CC1)n1c(=O)c3cc4ccccc4cc3c(=O)n12 (stereo unspecified) | 38.7 µM (inactive) | 40.6 µM (inactive) | 66.8 µM (inactive) | 54.3 µM (inactive) | 26.4 µM (inactive) | 41.9 µM (inactive) | – | 31.7 µM (inactive) | > 100 µM (inactive)
19 | Cc1cccc2c1C(=O)OC2(C)c1cccc2ccccc12 (stereo unspecified) | 30.5 µM (inactive) | – | 50 µM (inactive) | – | 4.86 µM (inactive) | 43.1 µM (inactive) | > 100 µM (inactive) | 24.4 µM (inactive) | 73.6 µM (inactive)
20 | CC(C)c1ccccc1NC(=O)/C(Cl)=C1/Sc2ccccc2NC1=O | 35.5 µM (inactive) | – | 34 µM (inactive) | 34 µM (inactive) | – | 18.5 µM (inactive) | – | 24.2 µM (inactive) | 30.5 µM (inactive)
21 | COc1ccc(C=O)c([N+](=O)[O-])c1 | – | 25.4 µM (inactive) | 63.5 µM (inactive) | 57.7 µM (inactive) | 13.3 µM (inactive) | 24 µM (inactive) | 38.8 µM (inactive) | 14 µM (inactive) | 42.4 µM (inactive)
22 | CCCCC(C(=O)CCC(=O)Nc1ccc(Cl)c(Cl)c1)C(=O)C(C)C (stereo unspecified) | > 100 µM (inactive) | 52.4 µM (inactive) | > 100 µM (inactive) | – | – | > 100 µM (inactive) | > 100 µM (inactive) | > 100 µM (inactive) | > 100 µM (inactive)
23 | CCOC(=O)C1S/C(=N/c2ccc(Cl)cc2C)N=C1C (stereo unspecified) | 15.1 µM (inactive) | 24.2 µM (inactive) | 20 µM (inactive) | 21.1 µM (inactive) | 20.9 µM (inactive) | 12.9 µM (inactive) | 45.8 µM (inactive) | 17.4 µM (inactive) | 20.4 µM (inactive)
24 | C[C@@H]1[C@H](c2ccccc2)O[B-]2(c3ccc(Br)cc3)OC(=O)C[N+]12C (stereo partly specified) | > 100 µM (inactive) | – | > 100 µM (inactive) | > 100 µM (inactive) | 97.1 µM (inactive) | > 100 µM (inactive) | > 100 µM (inactive) | > 100 µM (inactive) | 35.4 µM (inactive)
25 | COc1ccc(C2Oc3c(cc(O)c(OC)c3C)[C@@H]2C)cc1OC (stereo partly specified) | > 100 µM (inactive) | 47.6 µM (inactive) | 86.1 µM (inactive) | > 100 µM (inactive) | 51.8 µM (inactive) | 33 µM (inactive) | > 100 µM (inactive) | > 100 µM (inactive) | 69.8 µM (inactive)
26 | CC1(CO)OC1COCc1ccccc1 (stereo unspecified) | > 100 µM (inactive) | > 100 µM (inactive) | – | > 100 µM (inactive) | > 100 µM (inactive) | > 100 µM (inactive) | – | > 100 µM (inactive) | > 100 µM (inactive)
27 | Cc1c2cc[n+](C)c(C)c2cc2c1[nH]c1ccccc12 | 10.5 µM (inactive) | 3.63 µM (inactive) | 3.44 µM (inactive) | – | – | 1.57 µM (inactive) | 0.586 µM (active) | 4.99 µM (inactive) | 5.05 µM (inactive)
28 | C=CCc1cc(-c2cc(CC=C)c(O)c(CN(CC)CC)c2)cc(CN(CC)CC)c1O | 70.1 µM (inactive) | 32.2 µM (inactive) | 18.3 µM (inactive) | 14.6 µM (inactive) | – | > 52.6 µM (inactive) | > 100 µM (inactive) | 14.5 µM (inactive) | > 100 µM (inactive)
29 | CC(=O)O[C@H]1C(=O)[C@@]2(C)[C@H]([C@H](OC(=O)c3ccccc3)[C@]3(O)C[C@H](OC(=O)[C@H](O)[C@@H](NC(=O)c4ccccc4)c4ccccc4)C(C)=C1C3(C)C)[C@]1(OC(C)=O)CO[C@@H]1C[C@@H]2O [PACLITAXEL] | 0.0448 µM (active) | 0.00313 µM (active) | – | – | 0.00348 µM (active) | – | 0.157 µM (active) | – | 0.00982 µM (active)
